Paper PMC12583827, “Harnessing microbial-derived metabolites in the urinary tract to prevent infection induced catheter encrustation” (Nature Communications, 2025)
Counter-ions that a name gives are not always drawn. Like-named read-outs stand apart in the source and are kept apart here.

Tests used:
Jack Bean Urease (JBU) = target: T1, Jack Bean Urease (JBU) (Canavalia ensiformis, UniProt P07374); format: biochemical; settings: for JBU activity: 0.1 U JBU, 500 mM urea
T1 construct: purchased Sigma-Aldrich
Protocol: To measure Jack Bean urease activity, the previously described assay was modified such that 0.1 U (1U liberates 1 µmol of ammonia from urea per minute) of JBU (Sigma-Aldrich urease from Canavalia ensiformis) were distributed into a 96-well plate in place of the bacterial suspensions. Acetohydroxamic acid (AHA), was used as a positive control and a vehicle control was used as a negative control. Percent of maximum urease activity was calculated using Area Under the Curve (AUC) relative to untreated bacteria of interest or untreated JBU. Urease activity measurement in MRSA was adapted from a recently published semi quantitative assay (See Supplementary materials for details)[48].
414 Supplementary Figure 13. Microbial metabolites dampen activity of purified Jack Bean
415 Urease (JBU). 0.1 U of JBU (1U liberates 1 µmol of ammonia from urea per minute) was
416 incubated at 37 °C with shaking in urease-dampening metabolites, 500mM urea, and phenol red.
417 A urea analogue, AHA, served as the positive control for inhibition of JBU. Absorbance
418 (OD562) was measured every 60 seconds for 90 minutes, and activity is expressed as percent of
419 maximum activity (% Max Activity) relative to untreated JBU. Graphs show mean±SD for 3
420 independent experiments with 3 technical replicates each. Data were analyzed by two tailed one
421 sample t-test to a hypothetical value of 100% activity. ***P<0.001, **P<0.002, *P<0.033.
(1 picture or pasted object on this page, not shown here)

P. mirabilis urease [1] = target: T2, P. mirabilis urease (Proteus mirabilis, UniProt P17086); format: cell-based; settings: for Combination index (CI): in combination with AHA; for Compound 2 %I alone: kphos
T2 construct: it utilizes whole bacterial cells, rather than isolated enzyme preparations; endogenous in cells; host or cells: Proteus mirabilis HI4320, live whole cells
Protocol: To assess the synergistic effects of dampening metabolites when used in combination with each other, P. mirabilis urease activity was measured as described above. Between 4-6 different concentrations for each dampening metabolite were tested both alone and in combination (See Fig. 6a for example). […] To account for variability between experiments, all conditions tested were performed on a single 96-well plate with three technical replicates for each condition. To compare between biologic replicates, percent inhibition relative to untreated P. mirabilis was calculated for each condition using the average area under the curve over 120-180 minutes (so that the positive control activity curve saturated without any increase in the negative control curve).
Statistical analysis was conducted using a one sample T test of the combination index compared to a hypothetical value of 1 (additive effect). […] Therefore, combination indexes were calculated using a desired effect size less than 40% were indicated with an * in Fig. 6b and in Supplementary Data 5.

[2] = target: T3, urease of P. mirabilis cell free extracts (Proteus mirabilis, UniProt P17086); format: biochemical; settings: for type of urease inhibition: Michaelis-Menten parameters, Lineweaver-Burke plot
T3 construct: 20ul of cell-free extract were distributed into a 96-well plate in place of the whole cell bacterial suspensions; endogenous in cells; host or cells: Proteus mirabilis HI4320, urea-induced; freeze-thaw and sonication lysate, clarified supernatant
Protocol: For the kinetic analysis of the urease reaction in the presence of urease dampening metabolites, urease activity assays were repeated with the P. mirabilis cell free extracts. Six different inhibitor concentrations that gave linear rates of reaction over a period of 120 min were tested for their effects on urease activity in the presence of urea concentrations ranging from 0 to 500 mM. Simple linear regression was performed on the absorbance (OD562) over 120 minutes for each condition and plotted as Initial velocity (slope) vs urea concentration. These initial hyperbolic plots were converted to double-reciprocal Lineweaver-Burke plots, and the pattern of inhibition inferred from the point of intersection of the lines. Finally, the Ki for a particular compound was determined by plotting the Km/Vmax ratio (the slope of the Lineweaver-Burke plots) of each line as a function of the inhibitor concentration as described by ref. [49]. The X-intercept corresponded to –Ki.

P. mirabilis urease [3] = target: T2, P. mirabilis urease; format: cell-based; settings: for effect on P. mirabilis urease activity (whole cell): potassium phosphate buffer, dose response
Protocol: Urease activity was measured as described previously in triplicate with at least three biological replicates[21]. Briefly, bacteria were cultured for ~18 h in LB broth, concentrated to an OD600 of 4, washed once in saline, and diluted (1:10 for P. mirabilis and 1:50 for P. stuartii and M. morganii) into candidate dampening metabolites in potassium phosphate buffer or human urine pH7 and supplemented with 500 mM urea and 0.01% phenol red. Bacterial suspensions were distributed into a 96-well plate, incubated at 37 °C with double-orbital shaking in a Synergy H1 plate reader (BioTek), and absorbance (OD562) was measured every 60 seconds for 180 minutes. Isogenic urease mutants (Supplementary Data 1) served as negative controls for P. mirabilis and P. stuartii and a vehicle control served as a negative control for M. morganii.

[4] = target: T4, urease of P. mirabilis HI4320 cell free extracts (Proteus mirabilis, UniProt P17086); format: biochemical
T4 construct: 20ul of cell-free extract were distributed into a 96-well plate in place of the whole cell bacterial suspensions; endogenous in cells; host or cells: Proteus mirabilis HI4320, urea-induced; freeze-thaw and sonication lysate, clarified supernatant
Protocol: To measure urease activity of the cell free extracts of P. mirabilis, P. mirabilis was cultured for ~18 h in LB broth and then sub cultured until it reached mid-log growth phase (OD600 0.2-0.5). Cultures were spun down to pellet at 10,000 rcf for 10 minutes and resuspended in saline to a final OD600 of 1.0. Cultures were then diluted 1:10 in potassium phosphate buffer pH7 supplemented with 500 mM urea and incubated at 37 °C with shaking for 1 h to induce its urease enzyme production. The isogenic urease mutant Pm ureF::kan (Supplementary Data 1) served as negative control. Cultures then were spun down to pellet at 10,000 rcf for 10 minutes and resuspended in 2 mL saline. Cultures were subjected to four cycles of freezing in liquid nitrogen and thawing in a 37 °C water bath. Cultures were then probe sonicated (on ice) at 25% amplitude for 10 sec. Sonicated cultures were centrifuged at 18,900 Xg for 5 min and supernatants were transferred to a clean tube and stored on ice. To measure urease activity of cell free extracts, the previously described assay was modified such that 20ul of cell-free extract were distributed into a 96-well plate in place of the whole cell bacterial suspensions. Acetohydroxamic acid (AHA), was used as a positive control. Percent of maximum urease activity was calculated using Area Under the Curve (AUC) relative to untreated cell free extracts of P. mirabilis.

T2 sequence (P17086 whole entry): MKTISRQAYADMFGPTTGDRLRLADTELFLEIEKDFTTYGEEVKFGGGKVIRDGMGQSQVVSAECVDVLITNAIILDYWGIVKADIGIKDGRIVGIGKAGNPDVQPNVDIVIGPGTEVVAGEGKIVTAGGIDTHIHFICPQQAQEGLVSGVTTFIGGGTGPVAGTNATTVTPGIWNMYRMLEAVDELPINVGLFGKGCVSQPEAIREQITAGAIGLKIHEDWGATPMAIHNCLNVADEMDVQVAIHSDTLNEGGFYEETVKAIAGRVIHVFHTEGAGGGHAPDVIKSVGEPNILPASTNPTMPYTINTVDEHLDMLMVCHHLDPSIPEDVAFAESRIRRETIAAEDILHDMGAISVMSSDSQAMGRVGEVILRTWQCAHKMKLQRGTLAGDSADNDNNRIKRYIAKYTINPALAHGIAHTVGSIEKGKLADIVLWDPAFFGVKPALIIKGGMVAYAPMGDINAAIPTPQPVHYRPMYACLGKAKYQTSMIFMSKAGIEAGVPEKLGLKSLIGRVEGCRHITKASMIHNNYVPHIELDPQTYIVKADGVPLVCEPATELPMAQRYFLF
T2 sequence (P17088 whole entry, further chain): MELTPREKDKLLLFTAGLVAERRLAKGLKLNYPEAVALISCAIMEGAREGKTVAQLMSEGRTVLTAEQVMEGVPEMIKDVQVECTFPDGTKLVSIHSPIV
T2 sequence (P17087 whole entry, further chain): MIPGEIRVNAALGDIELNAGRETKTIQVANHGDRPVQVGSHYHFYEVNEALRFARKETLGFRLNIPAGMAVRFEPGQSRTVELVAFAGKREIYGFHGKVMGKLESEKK
T3 sequence (P17086 whole entry): as the sequence (P17086 whole entry) above
T3 sequence (P17088 whole entry, further chain): as the sequence (P17088 whole entry, further chain) above
T3 sequence (P17087 whole entry, further chain): as the sequence (P17087 whole entry, further chain) above
T1 sequence (P07374 whole entry, looked up): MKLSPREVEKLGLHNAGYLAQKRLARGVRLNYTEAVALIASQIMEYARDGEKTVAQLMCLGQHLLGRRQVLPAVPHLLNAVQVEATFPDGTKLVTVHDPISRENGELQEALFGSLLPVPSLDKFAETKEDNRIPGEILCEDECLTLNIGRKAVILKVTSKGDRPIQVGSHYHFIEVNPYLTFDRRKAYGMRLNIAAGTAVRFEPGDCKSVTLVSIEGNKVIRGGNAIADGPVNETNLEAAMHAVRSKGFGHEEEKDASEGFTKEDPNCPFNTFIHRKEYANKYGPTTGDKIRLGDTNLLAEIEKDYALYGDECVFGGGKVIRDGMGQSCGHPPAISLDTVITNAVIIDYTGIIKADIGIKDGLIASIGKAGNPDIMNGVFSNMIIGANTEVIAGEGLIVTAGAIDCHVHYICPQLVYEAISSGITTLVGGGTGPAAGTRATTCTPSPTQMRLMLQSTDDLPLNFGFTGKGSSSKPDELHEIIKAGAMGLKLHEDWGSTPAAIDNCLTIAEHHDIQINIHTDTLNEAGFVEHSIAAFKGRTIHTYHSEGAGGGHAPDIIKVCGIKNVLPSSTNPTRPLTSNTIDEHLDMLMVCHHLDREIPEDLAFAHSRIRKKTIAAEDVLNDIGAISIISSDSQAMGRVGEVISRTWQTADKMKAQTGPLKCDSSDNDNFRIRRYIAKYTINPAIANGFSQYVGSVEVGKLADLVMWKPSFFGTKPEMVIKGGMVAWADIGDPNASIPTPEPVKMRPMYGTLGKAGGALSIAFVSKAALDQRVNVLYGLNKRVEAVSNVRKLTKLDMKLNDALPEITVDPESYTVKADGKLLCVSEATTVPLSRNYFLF
T4 sequence (P17088 whole entry): as the sequence (P17088 whole entry, further chain) above
T4 sequence (P17086 whole entry): as the sequence (P17086 whole entry) above
T4 sequence (P17087 whole entry, further chain): as the sequence (P17087 whole entry, further chain) above

Row | SMILES | concentrations at which JBU activity was significantly inhibited (Jack Bean Urease (JBU)) | concentrations required to achieve a significant combination index (P. mirabilis urease [1]) | Combination index (CI) (P. mirabilis urease [1]) | change of estimated Km on addition of metabolite [2] | change of estimated Vmax on addition of metabolite [2] | type of urease inhibition [2] | effect on P. mirabilis urease activity (whole cell) (P. mirabilis urease [3]) | Urease dampening activity (P. mirabilis urease [3]; screen of candidate metabolites, highest concentration tested 20mM, * Trending but not statistically significant, listed as Histamine HCl) | urease activity of cell free P. mirabilis extracts [4] | JBU activity (Jack Bean Urease (JBU)) | Dampens urease activity (P. mirabilis urease [3]; biosynthetic pathway/functional group screen, highest concentration tested 20mM) | Compound 2 %I alone (P. mirabilis urease [1]; Compound 2 [] alone 0.0782, assay date 2024 08 07) | Compound 2 %I alone (P. mirabilis urease [1]; Compound 2 [] alone 0.156, assay date 2024 08 07) | Compound 2 %I alone (P. mirabilis urease [1]; Compound 2 [] alone 0.156, assay date 2024 08 09) | sub-inhibitory concentrations that still decrease P. mirabilis urease activity (P. mirabilis urease [3]; concentrations not inhibiting growth/viability) | Urease dampening activity (P. mirabilis urease [3]; highest concentration tested 0.625mM)
1 | NCCc1c[nH]cn1 [Histamine, histamine dihydrochloride] | > 20 mM | < 50 mM | < 1 | increase | decrease | mixed inhibitors | reproducibly decreased | Yes | at least partially inhibiting |  |  |  |  |  |  | 
2 | Cl.O=C(O)Cc1cnc[nH]1 [4-imidazole acetate, 2-(1H-Imidazol-5-yl)acetic acid hydrochloride] |  | < 50 mM | < 1 | increase | decrease | mixed inhibitors | additional hits |  | at least partially inhibiting | inhibited | Yes |  |  |  |  | 
3 | O.O=C(O)[C@H](O)Cc1cnc[nH]1 [D-imidazole lactate, D-imidazolelactic acid hydrate] |  |  |  | remain roughly unchanged | decrease | non-competitive inhibition | more potent activity profile compared to the L-imidazole lactate |  | at least partially inhibiting | inhibited |  | 34.9% | 60.4% | 49.2% | ≤ 0.0391 mM | Yes
